Test results reported in US8765688B2, “Anti-dandruff compositions containing peptides” (priority 2007, dated 2014).
Ends that are not written are not given here.

Columns and labels:
[1] = system: Malassezia furfur; assay: Kinetics of the effect of P18 on M. furfur in the presence of a shampoo basic formulation, CFU; format: cell-based; details: 2.3-0.23 g/l, 5 min to 24 hours, 10% (v/v) formulation 31-3
Protocol: The effect of the peptide […]; carboxy-terminal end amidated; […] The experiments were carried out as follows: The following shampoo basic formulation was prepared: The components Texapon NSO and Tego Betain L7 were mixed and dissolved. The pH was adjusted to pH 6-7 with NaOH. The effect of P18, ZPT and Climbazole against M. furfur was analyzed as follows: Growth medium: […]-Pityrosporum medium according to DSMZ 40 g/L malt extract 20 g/L ox bile 10 g/L Tween 40 The components were sterilized at 121° C., 1 bar superatmospheric pressure for 20 minutes. 2 g/L of olive oil (sterilized by filtration and, after autoclaving, added to the other components) Since it was a two-phase medium, the complete medium was treated with sonication in order to enlarge the phase boundary. For agar plates, if appropriate, […] of agar agar were added to the medium. The growth test was carried out as follows: […]. furfur and incubated with shaking overnight at 30° C. and 200 rpm. A 96-well microtiter plate was filled with in each case 100 μl of […]. furfur suspension of the overnight culture. […] The peptide P18 was dissolved in water with a concentration of 230 g/l. […] The microtiter plate was incubated with shaking at 30° C.

[2] = system: Malassezia furfur; assay: Inhibition of Malassezia furfur growth test (optical density and colony-forming units), Examples 1 and 2; format: cell-based; details: for colony-forming units: 10 μl plated out
Protocol: Growth medium: M472-Pitysporum medium according to DSMZ
The components were sterilized at 121° C., 1 bar superatmospheric pressure for 20 minutes.
2 g/l of olive oil were sterilized by filtration and, after autoclaving, added to the other components.
Since it was a two-phase medium, the complete medium was treated with sonication in order to enlarge the phase boundary.
For agar plates, if appropriate, […] of agar agar were added to the medium.
The growth test was carried out as follows: A shake flask with M472-Pitysporum medium was inoculated with M. furfur and incubated with shaking overnight at 30° C. and 200 rpm.
A 96-well microtiter plate was filled with in each case 100 μl of M472-Pitysporum medium and inoculated with M. furfur suspension of the overnight culture. The M. furfur suspension was adjusted at the start of the experiment to an optical density, measured at 620 nm, of 0.02. The concentrates of the inhibitor solutions were 1 mM in water or DMSO.
The growth of the following batches was compared by measuring the optical density:
M. furfur suspension without the addition of an inhibitor.
This was to exclude that an inhibition is attributable merely to the effect of the DMSO, or a false positive result being observed.
M. furfur suspension and addition of an aqueous P18 solution with a final concentration of 25 μM.
M. furfur suspension and addition of a P18 solution in DMSO with a final concentration of 25 μM.
M. furfur suspension and addition of a zinc pyrithione (ZPT, Sigma-Aldrich) solution in DMSO with a final concentration of 25 μM.
M. furfur suspension and addition of a Ketoconazole (Sigma-Aldrich) solution in DMSO with a final concentration of 25 μM.
The microtiter plate was incubated with shaking at 30° C.
[…] The colony-forming units (CFU) were then determined by plating out 10 μl from each of the suspensions and, after incubation for 6 days, counting the colonies. The CFU was determined in order to exclude an influence of the two-phase medium and also the growth form of M. furfur on the optical density. […] The experiments were carried out at least in triple determinations and independently repeated.
For this, the procedure was as described in Example 1. 1 mM stock solutions of the fusion peptide P18, magainin 2 and cecropin A in DMSO were prepared. The final concentrations of the peptides in the growth experiments were 25 μM. The same amount of DMSO was likewise added to the suspension without inhibitor in order to exclude a growth-inhibiting effect of the DMSO.
The growth of the following mixtures was compared by measuring the optical density:
This was to exclude that an inhibition is attributable merely to the effect of the DMSO.
M. furfur suspension and addition of a magainin 2 solution in DMSO with a final concentration of 25 μM.
M. furfur suspension and addition of a cecropin A solution in DMSO with a final concentration of 25 μM.
M. furfur suspension and addition of a peptide P18 (SEQ ID NO3) solution in DMSO with a final concentration of 25 μM.

[3] = aqueous solution, 25 μM, incubation time 16 h
[4] = aqueous solution, 25 μM, incubation time 24 h
[5] = aqueous solution, 25 μM, incubation time 40 h
[6] = solution in DMSO, 25 μM, incubation time 16 h
[7] = solution in DMSO, 25 μM, incubation time 24 h
[8] = solution in DMSO, 25 μM, incubation time 40 h

Q: How did the “effect on M. furfur in the presence of shampoo basic formulation (in words)” value [1] turn out when “KWKLFKKIPKFLHLAKKF-NH2 [P18, KWKLFKKIPKFLHLAKKF-NH2]” was run?
A: superior characteristics as compared to Zincpyrithione or Climbazole

Q: What about the “inhibition of the growth of M. furfur compared to magainin 2 or cecropin A” value ([2]; 25 μM in DMSO) of the same substance?
A: more effectively than magainin 2 or cecropin A alone

Q: And the “growth of M. furfur (in words)” value ([2]; 25 μM, observed time period up to 40 hours)?
A: effectively inhibited

Q: What about the optical density ([2]; aqueous solution, 25 μM, incubation time 0 h) of the same substance?
A: 0

Q: What about the optical density [2, 3] of the same substance?
A: 0

Q: And the colony-forming units [2, 3]?
A: 62

Q: What about the optical density [2, 4] of the same substance?
A: 0

Q: What about the colony-forming units [2, 4] of the same substance?
A: 41

Q: What about the optical density [2, 5] of the same substance?
A: 0

Q: What about the colony-forming units [2, 5] of the same substance?
A: 120

Q: What about the optical density ([2]; solution in DMSO, 25 μM, incubation time 0 h) of the same substance?
A: 0

Q: What about the optical density [2, 6] of the same substance?
A: 0

Q: What about the colony-forming units [2, 6] of the same substance?
A: 8

Q: What about the optical density [2, 7] of the same substance?
A: 0

Q: What about the colony-forming units [2, 7] of the same substance?
A: 0

Q: What about the optical density [2, 8] of the same substance?
A: 0

Q: What about the colony-forming units [2, 8] of the same substance?
A: 0

Q: What about the CFU ([2]; solution in DMSO, 25 μM, incubation time 64 h) of the same substance?
A: 0

Q: What about the CFU ([2]; solution in DMSO, 25 μM, incubation time 72 h) of the same substance?
A: 23
